Where “and” joins values, the source holds several entries; their conditions need not be identical. Equal entries are not always repeated.
Tested on: 156681-154-R-J1-PDC complex spheroid viability
Assay: Anticancer human tumor 156681-154-R-J1-PDC patient-derived melanoma cell line growth inhibition [CLK]
Details: for viability, T/C: stronger effect = lower value
Excerpt: A high-throughput screen of multi-cell type tumor spheroids was designed to identify active combinations of […] and targeted small molecules. Complex spheroids include a stromal component modeled by human endothelial cells (HUVEC) and fibroblasts modeled by human mesenchymal stem cells (MSCs). The concentration ranges selected for each drug and investigational agent were based upon clinically achievable concentrations if the clinical Cmax of the agent was known.
Compounds. The drugs and investigational agents: cirtuvivint (SM08502; NSC835563), CC-671 (NSC850746), vemurafenib (NSC761431), tapotoclax (NSC804041), sotorasib (NSC818433), adagrasib (NSC831453), MRTX-1133 (NSC836407), BAY2416964 (NSC825713), copanlisib (NSC816437), inavolisib (NSC800729), abemaciclib (NSC768073), osimertinib (NSC779217), entinostat (NSC756642), eltanexor (KPT-8602, NSC794443), venetoclax (NSC766270), ceralasertib (NSC777638), bortezomib (NSC756655), olaparib (NSC753686), talazoparib (NSC767125), alisertib (NSC759677), peposertib (NSC802822), gemcitabine (NSC613327), 5-fluorouracil (NSC19893), SN-38 (NSC673596), oxaliplatin (NSC266046), paclitaxel (NSC125973), and doxorubicin (NSC123127), were obtained from the National Cancer Institute (NCI) Developmental Therapeutics Program Chemical Repository. The FDA-approved anticancer drug set is available from the Developmental Therapeutics Program at https://dtp.cancer.gov/organization/dscb/obtaining/available plates.htm. […] The stock solutions were prepared in dimethyl sulfoxide (DMSO, Sigma-Aldrich, St. Louis, MO, cat. D2650), except for the platinum complexes which were prepared in saline (Quality Biological, Gaithersburg, MD, cat. 114-055-101), at 800-fold the tested concentration and stored at -70 degrees C prior to their use. All drugs and investigational agents were tested over a range starting from a high concentration at or near the clinical Cmax and decreasing in half-log increments. If the clinical Cmax for an agent had not been determined, the highest concentration tested was 10 microM.
Cell Culture. All cells were maintained in an incubator at 37 degrees C and 5% CO2 with 95% humidity. The PDC lines were cultured according to standard operating procedures established by the NCI PDMR. Briefly, all PDCs were thawed and cultured in Matrigel-coated flasks prepared with a working solution of 1X Ham's F-12 nutrient mix, without supplementation (Invitrogen, Waltham, MA, cat. 11765054), 100 U/mL penicillin-streptomycin (Invitrogen, cat. 15140122), and 2.5% Matrigel (Corning Inc., Corning, NY, cat. 354248) for the first three passages. The 947758-054-R-J2-PDC line was cultured in 6B/Colon 1A media, which includes advanced DMEM/F-12 (Thermo Fisher Scientific, cat. 12634028), 10 mM HEPES (Thermo Fisher Scientific, cat. 15630080), 1X GlutaMAX supplement (Thermo Fisher Scientific, cat. 35050061), 0.1 mg/mL primocin (InvivoGen, cat. ant-pm-2), 10% defined fetal bovine serum, heat inactivated (HyClone Laboratories Inc., cat. SH30070.03HI), 1.25 mM N-Acetyl-L-cysteine (Sigma-Aldrich, cat. A9165), 10 mM nicotinamide (Sigma-Aldrich, cat. N0636), 1X B-27 supplement (Thermo Fisher Scientific, cat. 17504044), 1X N-2 supplement (Thermo Fisher Scientific, cat. 17502048), and 10 microM Y-27632 dihydrochloride (Tocris Bioscience, cat. 1254). The 876862-298-R-J1-PDC was cultured in 6E media, which includes all 6B/Colon 1A media components plus 50% L-WRN conditioned media (ATCC, cat. CRL-3276), 50 ng/mL recombinant human EGF recombinant protein (hEGF; Thermo Fisher Scientific, cat. PHG0311), 10 ng/mL recombinant human fibroblast growth factor 10 (hGFG-10; PeproTech, cat. 100-26), 1 ng/mL recombinant human fibroblast growth factor 2 (hFGF-2; PeproTech, cat. 100-18B), and 1 µM prostaglandin E2 (PGE2; Tocris, cat. 2296). The 227483-062-R1-J1-PDC line was cultured in Panc media, containing all 6E components except hFGF-2, with the addition of 500 nM SB-431542 (Selleckchem, cat. S1067) and 10 nM gastrin (Tocris, cat. 3006). […]

[1] = curve of first compound, second compound 0.0316 µM
[2] = curve of first compound, second compound 0.1 µM
[3] = curve of first compound, second compound 0.316 µM
[4] = curve of first compound, second compound 1 µM
[5] = curve of first compound, second compound 3.16 µM
[6] = curve of first compound, second compound 10 µM
[7] = second compound 0.0316 µM, first compound 0.0316 µM
[8] = second compound 0.0316 µM, first compound 0.1 µM
[9] = second compound 0.0316 µM, first compound 0.316 µM
[10] = second compound 0.0316 µM, first compound 1 µM
[11] = second compound 0.0316 µM, first compound 3.16 µM
[12] = second compound 0.0316 µM, first compound 10 µM
[13] = second compound 0.1 µM, first compound 0.0316 µM
[14] = second compound 0.1 µM, first compound 0.1 µM
[15] = second compound 0.1 µM, first compound 0.316 µM
[16] = second compound 0.1 µM, first compound 1 µM
[17] = second compound 0.1 µM, first compound 3.16 µM
[18] = second compound 0.1 µM, first compound 10 µM
[19] = second compound 0.316 µM, first compound 0.0316 µM
[20] = second compound 0.316 µM, first compound 0.1 µM
[21] = second compound 0.316 µM, first compound 0.316 µM
[22] = second compound 0.316 µM, first compound 1 µM
[23] = second compound 0.316 µM, first compound 3.16 µM
[24] = second compound 0.316 µM, first compound 10 µM
[25] = second compound 1 µM, first compound 0.0316 µM
[26] = second compound 1 µM, first compound 0.1 µM
[27] = second compound 1 µM, first compound 0.316 µM
[28] = second compound 1 µM, first compound 1 µM
[29] = second compound 1 µM, first compound 3.16 µM
[30] = second compound 1 µM, first compound 10 µM
[31] = second compound 3.16 µM, first compound 0.0316 µM
[32] = second compound 3.16 µM, first compound 0.1 µM
[33] = second compound 3.16 µM, first compound 0.316 µM
[34] = second compound 3.16 µM, first compound 1 µM
[35] = second compound 3.16 µM, first compound 3.16 µM
[36] = second compound 3.16 µM, first compound 10 µM
[37] = second compound 10 µM, first compound 0.0316 µM
[38] = second compound 10 µM, first compound 0.1 µM
[39] = second compound 10 µM, first compound 0.316 µM
[40] = second compound 10 µM, first compound 1 µM
[41] = second compound 10 µM, first compound 3.16 µM
[42] = second compound 10 µM, first compound 10 µM
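Note: spheroids exposed to the agents for seven days.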
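Throughout, for viability, T/C: 100% = DMSO vehicle control viability.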

Nc1ccn(C2OC(CO)C(O)C2(F)F)c(=O)n1 (stereo not drawn) + CNC(=O)c1ccc(Nc2nc(OC3CCCC3)c3c(-c4ccc5nc(C)oc5c4)c[nH]c3n2)c(OC)c1
IC50 [1]: < 31.6 nM | IC50 [2]: < 31.6 nM | IC50 [3]: < 31.6 nM | IC50 [4]: < 31.6 nM | IC50 [5]: < 31.6 nM | IC50 [6]: < 31.6 nM | viability, T/C [7]: 12.3% | viability, T/C [8]: 15.9% | viability, T/C [9]: 13.6% | viability, T/C [10]: 17.9% | viability, T/C [11]: 15.6% | viability, T/C [12]: 15.2% | viability, T/C [13]: 13.2% | viability, T/C [14]: 13.4% | viability, T/C [15]: 14.2% | viability, T/C [16]: 16.1% | viability, T/C [17]: 15.7% | viability, T/C [18]: 14% | viability, T/C [19]: 15.7% | viability, T/C [20]: 11.9% | viability, T/C [21]: 19% | viability, T/C [22]: 13% | viability, T/C [23]: 12.2% | viability, T/C [24]: 12.5% | viability, T/C [25]: 20.5% | viability, T/C [26]: 11.2% | viability, T/C [27]: 7.8% | viability, T/C [28]: 9.13% | viability, T/C [29]: 12.3% | viability, T/C [30]: 10.8% | viability, T/C [31]: 25.3% | viability, T/C [32]: 12.3% | viability, T/C [33]: 9.98% | viability, T/C [34]: 7.12% | viability, T/C [35]: 11.4% | viability, T/C [36]: 7.7% | viability, T/C [37]: 28.5% | viability, T/C [38]: 12.4% | viability, T/C [39]: 9.66% | viability, T/C [40]: 9.99% | viability, T/C [41]: 12.1% | viability, T/C [42]: 7.49%

Nc1ccccc1NC(=O)c1ccc(CNC(=O)OCc2cccnc2)cc1
viability, T/C (compound 0.0316 µM): 105% and 91.2% | viability, T/C (compound 0.1 µM): 98.8% and 108% | viability, T/C (compound 0.316 µM): 71.4% and 47.5% | viability, T/C (compound 1 µM): 40.7% and 27% | viability, T/C (compound 3.16 µM): 6.65% and 4.95% | viability, T/C (compound 10 µM): 0.46% and 0.13% | IC50 (curve of compound): 674 nM and 305 nM

CC1(C)CCC(CN2CCN(c3ccc(C(=O)NS(=O)(=O)c4ccc(NCC5CCOCC5)c([N+](=O)[O-])c4)c(Oc4cnc5[nH]ccc5c4)c3)CC2)=C(c2ccc(Cl)cc2)C1 + CNC(=O)c1ccc(Nc2nc(OC3CCCC3)c3c(-c4ccc5nc(C)oc5c4)c[nH]c3n2)c(OC)c1
IC50 [1]: 5040 nM | IC50 [2]: 4190 nM | IC50 [3]: 3250 nM | IC50 [4]: 1860 nM | IC50 [5]: < 31.6 nM | IC50 [6]: < 31.6 nM | viability, T/C [7]: 92.9% | viability, T/C [8]: 101% | viability, T/C [9]: 103% | viability, T/C [10]: 96.8% | viability, T/C [11]: 83% | viability, T/C [12]: 1.52% | viability, T/C [13]: 66.6% | viability, T/C [14]: 80% | viability, T/C [15]: 82% | viability, T/C [16]: 70.4% | viability, T/C [17]: 65.8% | viability, T/C [18]: 0.92% | viability, T/C [19]: 67.1% | viability, T/C [20]: 72.9% | viability, T/C [21]: 65.2% | viability, T/C [22]: 74.1% | viability, T/C [23]: 51.2% | viability, T/C [24]: 0.88% | viability, T/C [25]: 59.7% | viability, T/C [26]: 62.7% | viability, T/C [27]: 46.6% | viability, T/C [28]: 57% | viability, T/C [29]: 44.8% | viability, T/C [30]: 2.29% | viability, T/C [31]: 42.6% | viability, T/C [32]: 37.8% | viability, T/C [33]: 36.2% | viability, T/C [34]: 50.4% | viability, T/C [35]: 32.1% | viability, T/C [36]: 1.28% | viability, T/C [37]: 46.6% | viability, T/C [38]: 34.7% | viability, T/C [39]: 39.9% | viability, T/C [40]: 41.4% | viability, T/C [41]: 30.2% | viability, T/C [42]: 0.58%

CC(=O)O[C@H]1C(=O)[C@@]2(C)[C@H]([C@H](OC(=O)c3ccccc3)[C@]3(O)C[C@H](OC(=O)[C@H](O)[C@@H](NC(=O)c4ccccc4)c4ccccc4)C(C)=C1C3(C)C)[C@]1(OC(C)=O)CO[C@@H]1C[C@@H]2O
viability, T/C (compound 0.0316 µM): 19.9% and 16% | viability, T/C (compound 0.1 µM): 13.5% and 12.5% | viability, T/C (compound 0.316 µM): 14.8% and 14.5% | viability, T/C (compound 1 µM): 23.2% and 18.2% | viability, T/C (compound 3.16 µM): 26.6% and 27.1% | viability, T/C (compound 10 µM): 26.6% and 32.9% | IC50 (curve of compound): < 31.6 nM

— PubChem BioAssay AID2060627 (Molecular Pharmacology Branch, DTP, NCI, 2025)
